Measured values from ChEMBL document CHEMBL1921728, “β-PNA: peptide nucleic acid (PNA) with a chiral center at the β-position of the PNA backbone” (Bioorg Med Chem Lett, 2011).

Legend:
[1] = Solubility of the compound in water; type: physicochemical
[2] = system: Nucleic Acid; test: Binding affinity to 5'-AGTGATCTAC-3' DNA assessed as melting temperature at 5 uM at pH 7.4 by thermal denaturation assay; type: nucleic-acid assay

solubility [1] [µM] | Tm [2] [°C] | Compound
> 500 | 51 | Cc1cn(CC(=O)N(CC(=O)NCCN(CC(=O)NCCN(CC(=O)NCCN(CC(=O)NC[C@H](C)N(CC(=O)N[C@@H](CCCCN)C(N)=O)C(=O)Cn2cc(C)c(=O)[nH]c2=O)C(=O)Cn2ccc(N)nc2=O)C(=O)Cn2cnc3c(N)ncnc32)C(=O)Cn2ccc(N)nc2=O)[C@@H](C)CNC(=O)CN(CCNC(=O)CN(CCNC(=O)CN(CCNC(=O)CN(C(=O)Cn2cc(C)c(=O)[nH]c2=O)[C@@H](C)CNC(=O)CN(CCN)C(=O)Cn2cnc3c(=O)[nH]c(N)nc32)C(=O)Cn2cnc3c(N)ncnc32)C(=O)Cn2cnc3c(=O)[nH]c(N)nc32)C(=O)Cn2cnc3c(N)ncnc32)c(=O)[nH]c1=O
> 500 |  | Cc1cn(CC(=O)N(CC(=O)NCCN(CC(=O)NCCN(CC(=O)NCCN(CC(=O)NC[C@@H](C)N(CC(=O)N[C@H](CCCCN)C(N)=O)C(=O)Cn2cc(C)c(=O)[nH]c2=O)C(=O)Cn2ccc(N)nc2=O)C(=O)Cn2cnc3c(N)ncnc32)C(=O)Cn2ccc(N)nc2=O)[C@H](C)CNC(=O)CN(CCNC(=O)CN(CCNC(=O)CN(CCNC(=O)CN(C(=O)Cn2cc(C)c(=O)[nH]c2=O)[C@H](C)CNC(=O)CN(CCN)C(=O)Cn2cnc3c(=O)[nH]c(N)nc32)C(=O)Cn2cnc3c(N)ncnc32)C(=O)Cn2cnc3c(=O)[nH]c(N)nc32)C(=O)Cn2cnc3c(N)ncnc32)c(=O)[nH]c1=O
> 500 | 51.4 | Cc1cn(CC(=O)N(CCNC(=O)CN(CCNC(=O)CN(CCNC(=O)CN(CCNC(=O)CN(CCNC(=O)CN(CCN)C(=O)Cn2cnc3c(=O)[nH]c(N)nc32)C(=O)Cn2cc(C)c(=O)[nH]c2=O)C(=O)Cn2cnc3c(N)ncnc32)C(=O)Cn2cnc3c(=O)[nH]c(N)nc32)C(=O)Cn2cnc3c(N)ncnc32)CC(=O)NCCN(CC(=O)NCCN(CC(=O)NCCN(CC(=O)NCCN(CC(=O)N[C@@H](CCCCN)C(N)=O)C(=O)Cn2cc(C)c(=O)[nH]c2=O)C(=O)Cn2ccc(N)nc2=O)C(=O)Cn2cnc3c(N)ncnc32)C(=O)Cn2ccc(N)nc2=O)c(=O)[nH]c1=O
